Measurements from patent US20250108049A1, “COMPOUNDS FOR TREATING MDS-ASSOCIATED ANEMIAS AND OTHER CONDITIONS” (Agios Pharmaceuticals, Inc., priority 2021, published 2025).

Assays:
Polg^D257A mice [1] = assay: Bone marrow aspirate flow cytometry of erythroblast populations in Polg^D257A mice (Example 3); assay type: in vivo, mouse; settings: 10 mg/kg/day in chow, 8 months of treatment
Description: (§1) To determine the impacts of mitapivat and Compound 1 under these conditions, bone marrow aspirates from diseased mice were collected and populations of erythroblasts were evaluated at various stages of maturation using flow cytometry. Hemoglobin (Hb), red blood cell (RBC) counts, and reticulocyte fractions were also monitored every 4 weeks in whole blood on a Sysmex XN-1000™ hematology analyzer to determine if disease burden and impact on erythroblast maturation could be detected in the periphery. Pharmacodynamics and pharmacokinetic analysis were also performed to confirm appropriate exposure and target engagement of the compounds (data not shown).
(§2) A second experiment was performed using the Polg^D257A model (RRID:IMSR_JAX:017341) from Example 2. In this experiment 20 mice (10 males and 10 females per group) were dosed with either mitapivat or Compound 1 in chow as described in Example 2. For the mitapivat group, the compound was dosed at 200 mg/kg/day and for the Compound 1 group, Compound 1 was dosed at 10 mg/kg/day. Treatment was started when the mice were 4 months of age and was continued for 8 months (rolling enrollment). Following 8 months of treatment (at 12 months of age), an evaluation of bone marrow aspirates was conducted by flow cytometry using well established markers of erythropoiesis following a modified procedure outlined in Suragani et al., Nat Med 2014 Apr; 20(4):408-14. Bone marrow aspirates were treated with ACK lysis buffer for 3 minutes to remove red blood cells from the sample. Remaining cells were washed and maintained in PBS+5% FBS throughout the remainder of the procedure. The flow cytometry panel included live/dead (Indol), B220 (BV421), CD5 (BV421), CD71 (AF700), and Terl19 (PE) antibodies. The gating strategy used for analysis was as follows: Live/B220-CD5-/Terl19+. Ter119+cells were then gated into populations using CD71 and FSC as outlined in the literature (Suragani et al., Nat Med 2014 Apr; 20(4):408-14; FIG. 6E). […] FIG. 6D. Flow cytometry data on the mitapivat treated Polg^D257A mice is not available as the mitapivat treatment arm is not yet completed.

Polg^D257A mice [2] = assay: Whole blood Hb, RBC and reticulocyte analysis in Polg^D257A mice, second experiment (Example 3); assay type: in vivo, mouse
Description: as §1, §2
Data not shown. After 24 weeks (6 months thus far) of treatment, mitapivat increased Hb and RBC counts by 7% in Polg^D257A mice, with no change in reticulocytes. Data not shown. After 32 weeks of treatment with Compound 1 no change in Hb, RBC count, or reticulocyte fraction was observed. Data not shown.

NHD13 mice [3] = assay: Bone marrow aspirate flow cytometry of erythroblast populations in NHD13 mice (Example 5); assay type: in vivo, mouse; settings: NHD13 mice aged 4 months, in chow, 20 weeks of treatment; mild disease in model
Description: as §1
A NUP98-HOXD13 (NHD13) transgenic MDS associated mouse model will also be used to assess the therapeutic benefit of disclosed compounds. See e.g., Lin et al., Blood 2005 Jul 1;106(1):287-95 and Suragani et al., Nat Med 2014 Apr;20(4):408-14. […] A full blood panel and erythroid precursor analysis will be conducted after 2 months of treatment, and results will be analyzed.
Using Example 4, 20 NHD13 mice (10 males and 10 females per group; RRID:IMSR_JAX:010505) aged 4 months were randomized into treatment groups using matched distribution of hemoglobin levels. […] After 20 weeks of treatment with either mitapivat or Compound 1, bone marrow aspirates of the NHD13 mice were collected as described above and analyzed by flow cytometry. […]

NHD13 mice [4] = assay: Whole blood hematology in NHD13 mice (Example 5); assay type: in vivo, mouse; settings: NHD13 mice aged 4 months, in chow, 20 weeks of treatment
Description: as §1
A NUP98-HOXD13 (NHD13) transgenic MDS associated mouse model will also be used to assess the therapeutic benefit of disclosed compounds. See e.g., Lin et al., Blood 2005 Jul 1;106(1):287-95 and Suragani et al., Nat Med 2014 Apr;20(4):408-14. Male and female NHD13 mice aged to 4 or 10 months will be administered a disclosed compound in chow, ad libitum (e.g., mitapivat or Compound 1) daily. A full blood panel and erythroid precursor analysis will be conducted after 2 months of treatment, and results will be analyzed.
Using Example 4, 20 NHD13 mice (10 males and 10 females per group; RRID:IMSR_JAX:010505) aged 4 months were randomized into treatment groups using matched distribution of hemoglobin levels. Mice were dosed with either mitapivat or Compound 1 for 20 weeks in the same manner (in chow, ad libitum) as Example 3. After 20 weeks of treatment with either mitapivat or Compound 1, bone marrow aspirates of the NHD13 mice were collected as described above and analyzed by flow cytometry. […] In addition, a significant decline in survival of vehicle control NHD13 mice as previously reported (Lin et al., […] 2005 July;106(1)) was not observed. […] This mild state of disease was also supported in whole blood analysis. […] Data not shown.

Polg^D257A mice [5] = assay: Mitapivat in Polg^D257A MDS-associated anemia mouse model, whole blood hematology (Example 2); assay type: in vivo; settings: 200 mg/kg/day in chow
Description: as §1
Mitochondrial disruption has been linked to the development of anemia in MDS patients (see, e.g., Chen et al. Blood. 2009; 114(19):4045-53). Mitochondria play a key role in regulation of apoptosis, which is a mechanism highlighted in defunct hematopoiesis of MDS (Green et al., Science 1998; 281(5381):1309-1312, Kerbauy et al., Exp Hematol. 2007; 35(11): 1739-1746; Ahlqvist et al. Nature Communications. 2015; 6:6494). B6.12957(Cg)-Polg^tm1prol/J, or Polg^D257A, is a mouse model with a mutation in the N-terminus of the DNA polymerase γ gene that results in impaired proofreading activity in the mitochondria, leading to increased mtDNA mutagenesis (Jackson Laboratory #017341). See, Chen et al. Blood. 2009; 114(19):4045-53 and Ahlqvist et al. Nature Communications. 2015; 6:6494. […] Here, we used the Polg^D257A mouse model to evaluate the therapeutic benefit of a PK activator, mitapivat, in this mechanism of anemia.
Male and female Polg^D257A mice were administered 200 mg/kg/day mitapivat in chow, ad libitum, for 18 weeks starting at 7.5 months of age, once anemic phenotype was established by hematology analysis. Whole blood was collected via tail vein into EDTA tubes and analyzed using a Sysmex XN-2000™ hematology system according to manufacturer protocol. Hemoglobin, red blood cells (RBCs), and reticulocytes were monitored every 2-4 weeks to track disease progression and severity. After 18 weeks of mitapivat treatment, RBC counts were elevated by 45% and hemoglobin levels were increased by 2.4 g/dL in mitapivat treated mice compared to untreated mutants.
See FIGS. 1A-D and FIGS. 2A-D (C57BL/6J mice were used as controls). […] Commensurate with increased hemoglobin was a marked decrease (about 30%) in reticulocyte count.

[6] = 10 mg/kg/day in chow, after 32 weeks of treatment
[7] = male and female Polg^D257A mice, after 18 weeks
[8] = 200 mg/kg/day in chow, after 24 weeks of treatment

SMILES: Cn1c2nc(Cc3cc[nH]n3)sc2c2cnn(Cc3cccc(N)n3)c(=O)c21 [Compound 1, 2-((1H-pyrazol-3-yl)methyl)-6-((6-aminopyridin-2-yl)methyl)-4-methyl-4H-thiazolo[5′,4′:4,5]pyrrolo[2,3-d]pyridazin-5(6H)-one]
- late basophilic and polychromatic erythroblasts (EryB) in bone marrow (Polg^D257A mice [1]): increase
- orthochromatic and reticulocytes (EryC) in bone marrow (Polg^D257A mice [1]): increase
- ProE (proerythrocyte) population in bone marrow (Polg^D257A mice [1]; compared to vehicle control Polg^D257A mice): no additional impact
- basophilic erythroblasts (EryA) in bone marrow (Polg^D257A mice [1]; vs vehicle control Polg^D257A mice): reduction
- change in Hb (Polg^D257A mice [2]; [6]): no change
- change in RBC count (Polg^D257A mice [2]; [6]): no change
- change in reticulocyte fraction (Polg^D257A mice [2]; [6]): no change
- therapeutic benefit in bone marrow flow cytometry data (erythroblast populations) (NHD13 mice [3]): difficult to detect any therapeutic benefit
- reduction in reticulocyte count (NHD13 mice [4]): 25%
- reduction in reticulocyte fraction (FIG. 8C) (NHD13 mice [4]): 20%
- response in Hb compared to vehicle controls (FIG. 8A) (NHD13 mice [4]): minimal response
- response in RBC count compared to vehicle controls (FIG. 8B) (NHD13 mice [4]): minimal response

SMILES: O=C(c1ccc(NS(=O)(=O)c2cccc3cccnc23)cc1)N1CCN(CC2CC2)CC1 [mitapivat, N-(4-(4-(cyclopropylmethyl)piperazine-1-carbonyl)phenyl)quinoline-8-sulfonamide]
- decrease in reticulocyte count (FIG. 2C) (Polg^D257A mice [5]; Polg^D257A mice): about 30%
- frequency of reticulocytes decreased (Polg^D257A mice [5]; Polg^D257A mice, after 18 weeks): 30%
- therapeutic benefit (hemoglobin), female mutators (Polg^D257A mice [5]; female Polg^D257A mice, after 18 weeks): responded after 18 weeks
- increase in hemoglobin, male mutators (Polg^D257A mice [5]; male Polg^D257A mice, starting at 6-weeks post-treatment): 1 to 2 g/dL
- RBC counts elevated compared to untreated mutants (Polg^D257A mice [5]; [7]): 45%
- hemoglobin levels increased compared to untreated mutants (Polg^D257A mice [5]; [7]): 2.4 g/dL
- Hb increased (Polg^D257A mice [2]; [8]): 7%
- RBC counts increased (Polg^D257A mice [2]; [8]): 7%
- change in reticulocytes (Polg^D257A mice [2]; [8]): no change
- therapeutic benefit in bone marrow flow cytometry data (erythroblast populations) (NHD13 mice [3]): difficult to detect any therapeutic benefit
- reduction in reticulocyte count (NHD13 mice [4]): 15%
- reduction in reticulocyte fraction (FIG. 8C) (NHD13 mice [4]): 20%
- response in Hb compared to vehicle controls (FIG. 8A) (NHD13 mice [4]): minimal response
- response in RBC count compared to vehicle controls (FIG. 8B) (NHD13 mice [4]): minimal response
